According to US20160332971A1, “ARYLQUINOLINE, ARYLQUINOLONE AND ARYLTHIOQUINOLONE DERIVATIVES AND USE THEREOF TO TREAT CANCER” (UNIVERSITY OF KENTUCKY RESEARCH FOUNDATION, priority 2015, published 2016):

How the values were obtained:
[1] = tested on: Par-4 secretion from mouse fibroblasts; assay: Par-4 secretion into conditioned medium, quantitative Western blot normalised to CollA1; assay type: cell-based; settings: for Relative Levels of Par-4 Secretion by Arylquins Administered at 500 nM: 24 h, mouse fibroblasts, CM; for Par-4 secretory activity (in words): SAR discussion; for Par-4 secretory activity (in words) / Ratio of Par-4 Secretion by Arylquin 1 Relative to Vehicle: 500 nM
Description: Calibration curve developed using fixed amounts (0.05-5 ng) of recombinant TRX-Par-4. […] Therefore the concentration was 0.82 ng/40 μL or 540 pM, In the same fashion, calculation for Par-4 concentration using vehicle (v) was 280 pM.
Biological activity of 3-Arylquinolines. […] After 24 h exposure, the CM and lysates were subjected to quantitative Western blot analysis for Par-4 and collagen (CollA1).
Co-immunoprecipitation and Western blot analysis. Protein extracted from cell lysates was filtered, pre-cleared with 25 μL (bed volume) of protein G-Sepharose beads and immunoprecipitated with 1 μg of respective antibodies. The eluted proteins were resolved by SDS-PAGE, and subjected to Western blot analysis as described previously. Bensch, et al. Nature 1968, 218(5147):1176-1177.
Statistical analyses. All experiments were performed in triplicate to verify the reproducibility of the findings. […] Statistical analyses were carried out with Statistical Analysis System software (SAS Institute, Cary, N.C.) and P values were calculated using the Student t test.

[2] = target: hERG potassium channel (Homo sapiens, UniProt Q12809)
Sequence of hERG potassium channel (Q12809 whole entry): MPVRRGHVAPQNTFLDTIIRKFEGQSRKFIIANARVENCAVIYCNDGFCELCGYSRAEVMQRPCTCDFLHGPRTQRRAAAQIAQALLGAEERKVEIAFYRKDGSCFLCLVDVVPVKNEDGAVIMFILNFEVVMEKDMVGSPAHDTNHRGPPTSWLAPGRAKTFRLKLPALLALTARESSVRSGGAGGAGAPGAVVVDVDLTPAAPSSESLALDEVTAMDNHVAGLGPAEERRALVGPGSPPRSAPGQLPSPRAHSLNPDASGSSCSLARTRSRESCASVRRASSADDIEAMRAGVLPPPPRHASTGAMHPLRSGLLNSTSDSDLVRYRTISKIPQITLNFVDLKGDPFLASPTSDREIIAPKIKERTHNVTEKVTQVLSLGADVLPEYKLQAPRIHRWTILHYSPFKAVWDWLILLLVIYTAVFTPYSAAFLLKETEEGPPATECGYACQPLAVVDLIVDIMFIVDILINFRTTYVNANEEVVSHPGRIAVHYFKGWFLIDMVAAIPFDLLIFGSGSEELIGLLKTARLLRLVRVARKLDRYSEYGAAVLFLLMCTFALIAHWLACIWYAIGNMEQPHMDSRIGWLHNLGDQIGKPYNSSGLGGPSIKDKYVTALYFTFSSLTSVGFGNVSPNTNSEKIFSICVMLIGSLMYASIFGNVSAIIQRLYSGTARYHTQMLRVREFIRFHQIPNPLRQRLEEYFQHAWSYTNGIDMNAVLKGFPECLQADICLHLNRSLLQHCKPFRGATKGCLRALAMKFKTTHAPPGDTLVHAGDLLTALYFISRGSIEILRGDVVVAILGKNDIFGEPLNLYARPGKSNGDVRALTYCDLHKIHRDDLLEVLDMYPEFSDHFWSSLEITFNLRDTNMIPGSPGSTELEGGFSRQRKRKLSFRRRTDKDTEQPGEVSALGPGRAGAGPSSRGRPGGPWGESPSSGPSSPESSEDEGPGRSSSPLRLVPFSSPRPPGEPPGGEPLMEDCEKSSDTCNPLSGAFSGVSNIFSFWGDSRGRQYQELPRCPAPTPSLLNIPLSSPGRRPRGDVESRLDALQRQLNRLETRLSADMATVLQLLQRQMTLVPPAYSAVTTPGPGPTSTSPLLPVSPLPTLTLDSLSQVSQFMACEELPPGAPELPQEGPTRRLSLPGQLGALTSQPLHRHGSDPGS
Source text: hERG Binding studies, An HEK-293 cell line stably expressing the hERG potassium channel (accession number U04270) referred to as hERG-HEK cells were received at passage 11 (P11) from Millipore (CYL3006, lot 2, Billerica, Mass.). [^3H]-Dofetilide (specific activity of 80 Ci/mmol; labeled on the N-methyl group) was obtained from American Radiolabeled Chemicals (St. Louis, Mo.). Other chemicals and solvents were obtained from Sigma-Aldrich (Milwaukee, Wis.). Polyethylenimine (PEI) was obtained from Fluka/Sigma-Aldrich (St. Louis, Mo.), and Minimium Essential Medium (MEM) with GlutaMAX™ and phenol red, MEM non-essential amino acids solution (NEAA, 100×), G418 disulfate salt solution, fetal bovine serum (FBS), 0.05% Trypsin-EDTA 1× with phenol red, and Hank's balanced salt solution (HBSS) were obtained from Life Technologies (Carlsbad, Calif.).
hERG-HEK Cell culture. hERG-FIEK Cells were cultured according to the protocol provided by Millipore. Cells were maintained in MEM (with glutamax and phenol red) supplemented with 10% […], 1% NEAA and […], and incubated at 37 ° C. in a humidified atmosphere with 5% CO2. Frozen aliquots of cells were transferred into T-75 cm^2 flasks and allowed to adhere for 4-8 h. The medium was replaced every 2 days. Passages were carried out at least 3 times after thawing at 6 day intervals. Cells were dissociated with trypsin/EDTA and seeded into new 150×25 mm dishes at 2-3×10^6 cells per dish and placed at 30° C., 5% CO2, for 40-48 h prior to membrane preparation. Membrane preparation occurred 6 days after the last passage (passage 20).
Membrane preparation. Cell membrane preparation was based on previous methods. See Herrmann, et al. J Mol Biol 1996, 264:933-953; Lavie, et al. J Org Chem 1965, 30(6):1774-1778; Chen, et al. A Practical Guide to Assay Development and High-throughput Screening in Drug Discovery, CRC Press Taylor and Francis Group, Boca Raton, Fla., 2010; Redfern, et al. Cardiovasc Res 2003, 58, 32-45. Cells were rinsed twice with HBSS at 37° C. and collected by scraping the dishes in 20 mL of ice-cold 0.32 M sucrose and homogenized on ice with a Teflon pestle using a Maximal Digital homogenizer (Fisher Scientific, Pittsburgh, Pa.) at 280 rpm for 30 sec. Homogenates were centrifuged at 300 g and 800 g for 4 min each at 4° C. Pellets were resuspended in 9 mL of ice-cold Milli-Q water and osmolarity restored by addition of 1 mL of 500 mM Tris buffer (pH 7.4) followed by suspension and centrifugation at 20,000 g for 30 min at 4° C. Pellets were homogenized in 2 mL assay buffer (50 mM Tris, 10 mM KCl, and 1 mM MgCl2, 4° C.) and aliquots of cell membrane suspensions were stored at −80° C. and thawed the day of the [^3H]-dofetilide binding assay. Protein content was determined prior to the assay using a Bradford protein assay with bovine albumin as the standard.
[^3H]-Dofetilide binding assay. [^3H]-Dofetilide binding assays using hERG-HEK293 cell membranes were based on previous methods. Redfern, et al. Cardiovasc Res 2003, 58, 32-45. Assays determining concentration-response were conducted in duplicate, and three independent assays were performed for each analog evaluated. […] Radioactivity was determined by liquid scintillation spectrometry using the Tri-Carb 2100-TR Liquid Scintillation Analyzer (Perkin-Elmer Life and Analytical Sciences) […]

Row | SMILES | Relative Levels of Par-4 Secretion by Arylquins Administered at 500 nM ([1]; Table 1) | Par-4 secretory activity (in words) [1] | IC50 [2] | Ratio of Par-4 Secretion by Arylquin 1 Relative to Vehicle ([1]; Table 2) | Relative Levels of Par-4 Secretion by Arylquins Administered at 500 nM ([1]; Table 2)
1 | CN(C)c1ccc2cc(-c3cccc(F)c3)c(N)nc2c1 [Arylquin 1d] | 66.8 ± 10.9 | weakly active | 1.59 ± 0.39 µM | – | –
2 | CN(C)c1ccc2cc(-c3ccc(F)cc3)c(N)nc2c1 [Arylquin 1f] | 12.3 ± 2.0 | weakly active | 30.2 ± 10.3 µM | – | –
3 | CN(C)c1ccc2cc(-c3ccccc3F)c(=S)[nH]c2c1 [Arylquin 10] | – | diminished Par-4 secretory activity relative to arylquinoline 1a | > 100 µM | 1.7 | 51.7 ± 4.9
4 | CN(C)c1ccc2cc(-c3ccccc3F)c(N3CCOCC3)nc2c1 [Arylquin 13a, 3-(2-Fluorophenyl)-NA-dimethyl-2-morpholinoquinolin-7-amine] | – | diminished activity to varying degrees | 23.3 ± 3.05 µM | 1.8 | 54.4 ± 2.8
5 | Nc1nc2ccccc2cc1-c1ccccc1F [Arylquin 15a] | – | decreased Par-4 secretory activity only slightly | 14.6 ± 5.82 µM | 2.8 | 82.1 ± 21.2
